According to the supplement of paper PMC11208160:

Assay: recombinant barcode read abundance after kanamycin selection (control-corrected) (log10(CPM+1)); higher = more efficient recombination; sequences stand for … in AGTGCAGAGAAAATCGGCCAGTTTTCTCTGCCTGCAGTCCGCATGCCGT…AGATTTATGCAGCGGACTGCCTTTCTCCCAAAGTGATAAACCGGACAGTATCATGGACCGGTTTTCCCGGTAATCCGTATTTGCAAGGTTGGTTTCACT; site = the 11-nt target
Method in brief: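 This pooled E. coli screen matched targets with IS621 bridge RNA target-binding loops. Plating was done in duplicate on chloramphenicol/ampicillin LB agar as a control and on chloramphenicol/ampicillin/kanamycin plus 0.1 mM IPTG. Recombination efficiency reflects barcode counts at recombinant junctions as counts per million, averaged and control-corrected. The figures are log10(CPM+1).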
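Note: IS621 recombinase and bridge RNA in Escherichia coli cells.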

Sequence	recombinant barcode read abundance (log10)
TATAGAGCTTGGGTTCTAACCTGTTGCGG (site TAGAGAGCTCC)	0.488
TATAGAGCTTGGGTTCTAACCTGTTGCGG (site TATAGAGCTCC)	2.21
TATATAACTTGGGTTCTAACCTGTTGCCT (site TATAAAACTAG)	0.137
TATATAACTTGGGTTCTAACCTGTTGCCT (site TATACAACTAG)	0.0941
TATATAACTTGGGTTCTAACCTGTTGCCT (site TATAGAACTAG)	0.119
TATATAACTTGGGTTCTAACCTGTTGCCT (site TATATAACTAG)	0.125
TATCAGACTTGGGTTCTAACCTGTTGCCA (site TATCAGACTTG)	0.639
TATCAGACTTGGGTTCTAACCTGTTGCCA (site TATCTGACTAG)	0.119
TATCCGACTTGGGTTCTAACCTGTTGCCG (site TATCCGACTAG)	0.224
TATCCGACTTGGGTTCTAACCTGTTGCCG (site TATCCGACTCG)	0.396
TATCCGACTTGGGTTCTAACCTGTTGCCG (site TATCCGACTGG)	0.386
TATCCGACTTGGGTTCTAACCTGTTGCCG (site TATCCGACTTG)	0.11
TATCCGACTTGGGTTCTAACCTGTTGCCT (site TATCCGACTAG)	1.12
TATCCGACTTGGGTTCTAACCTGTTGCCT (site TATCCGACTCG)	0.553
TATCCGACTTGGGTTCTAACCTGTTGCCT (site TATCCGACTGG)	0.0369
TATCCGACTTGGGTTCTAACCTGTTGCCT (site TATCCGACTTG)	0.0377
TATGACGCTTGGGTTCTAACCTGTTGCCT (site TAAGACGCTAG)	0.261
TATGACGCTTGGGTTCTAACCTGTTGCCT (site TACGACGCTAG)	0.124
TATGACGCTTGGGTTCTAACCTGTTGCCT (site TAGGACGCTAG)	0.00539
TATGACGCTTGGGTTCTAACCTGTTGCCT (site TATGACGCTAG)	1.12
TATGCGGCTTGGGTTCTAACCTGTTGCCT (site TATGAGGCTAG)	0
TATGCGGCTTGGGTTCTAACCTGTTGCCT (site TATGCGGCTAG)	0.34

Sequence	recombinant barcode read abundance (log10)
TATGCGGCTTGGGTTCTAACCTGTTGCCT (site TATGGGGCTAG)	0.193
TATGCGGCTTGGGTTCTAACCTGTTGCCT (site TATGTGGCTAG)	0.11
TATTAATCTTGGGTTCTAACCTGTTGCCT (site CATTAGTCTAG)	0.0101
TATTAATCTTGGGTTCTAACCTGTTGCCT (site TATTAATCTAG)	0.0472
TATTATACTTGGGTTCTAACCTGTTGCCT (site TATTATACTAA)	0.00549
TATTATACTTGGGTTCTAACCTGTTGCCT (site TATTATACTAC)	0.0157
TATTATACTTGGGTTCTAACCTGTTGCCT (site TATTATACTAG)	0.035
TATTATACTTGGGTTCTAACCTGTTGCCT (site TATTATACTAT)	0.467
TATTCACCTTGGGTTCTAACCTGTTGCCT (site AATTCACCTAG)	0.0667
TATTCACCTTGGGTTCTAACCTGTTGCCT (site CATTCACCTAG)	0.0903
TATTCACCTTGGGTTCTAACCTGTTGCCT (site GATTCACCTAG)	0.0774
TATTCACCTTGGGTTCTAACCTGTTGCCT (site TATTCACCTAG)	0.358
TATTCTCCTTGGGTTCTAACCTGTTGCCT (site TATTCTCCTAA)	0.212
TATTCTCCTTGGGTTCTAACCTGTTGCCT (site TATTCTCCTAC)	0.0221
TATTCTCCTTGGGTTCTAACCTGTTGCCT (site TATTCTCCTAG)	0.0657
TATTCTCCTTGGGTTCTAACCTGTTGCCT (site TATTCTCCTAT)	0.0206
TATTCTCCTTGGGTTCTAACCTGTTGCGT (site TATTCTCCTAA)	0.0153
TATTCTCCTTGGGTTCTAACCTGTTGCGT (site TATTCTCCTAC)	0.243
TATTCTCCTTGGGTTCTAACCTGTTGCGT (site TATTCTCCTAG)	0.12
TATTCTCCTTGGGTTCTAACCTGTTGCGT (site TATTCTCCTAT)	0.0406
TATTCTCCTTGGGTTCTAACCTGTTGCTT (site TATTCTCCTAA)	0.266
TATTCTCCTTGGGTTCTAACCTGTTGCTT (site TATTCTCCTAC)	0.0156

Sequence	recombinant barcode read abundance (log10)
TATTCTCCTTGGGTTCTAACCTGTTGCTT (site TATTCTCCTAG)	0.0207
TATTCTCCTTGGGTTCTAACCTGTTGCTT (site TATTCTCCTAT)	0.0253
TATTGGACTTGGGTTCTAACCTGTTGCAG (site TATTGGACTAT)	0.264
TATTGGACTTGGGTTCTAACCTGTTGCAG (site TATTGGACTCT)	1.05
TATTGGACTTGGGTTCTAACCTGTTGCAG (site TATTGGACTGT)	0.0393
TATTGGACTTGGGTTCTAACCTGTTGCAG (site TATTGGACTTT)	0.14
TATTTAGCTTGGGTTCTAACCTGTTGCGG (site ACCAACACTAA)	0.0937
TATTTAGCTTGGGTTCTAACCTGTTGCGG (site TATTTAGCTCC)	0.835
TATTTGCCTTGGGTTCTAACCTGTTGCCT (site TAATTGCCTAG)	0.0398
TATTTGCCTTGGGTTCTAACCTGTTGCCT (site TACTTGCCTAG)	0
TATTTGCCTTGGGTTCTAACCTGTTGCCT (site TAGTTGCCTAG)	0.408
TATTTGCCTTGGGTTCTAACCTGTTGCCT (site TATTTGCCTAG)	0
TCAATAGCTTGGGTTCTAACCTGTTGCAC (site AAGCCGCCTAA)	0.204
TCAATAGCTTGGGTTCTAACCTGTTGCAC (site TCAATAGCTGT)	1.28
TCACACTCTTGGGTTCTAACCTGTTGCCT (site TCACACTCTAG)	1.59
TCACACTCTTGGGTTCTAACCTGTTGCCT (site TCCCACTCTAG)	0.111
TCACACTCTTGGGTTCTAACCTGTTGCCT (site TCGCACTCTAG)	0.101
TCACACTCTTGGGTTCTAACCTGTTGCCT (site TCTCACTCTAG)	0.114
TCACCACCTTGGGTTCTAACCTGTTGCCT (site GAACCACCTAG)	0.028
TCACCACCTTGGGTTCTAACCTGTTGCCT (site TCACCACCTAG)	0.744
TCACCTTCTTGGGTTCTAACCTGTTGCCT (site TCACCTTCTAG)	0.274
TCACCTTCTTGGGTTCTAACCTGTTGCCT (site TCACTTCCTAG)	0.0695

Sequence	recombinant barcode read abundance (log10)
TCACGTCCTTGGGTTCTAACCTGTTGCAG (site TCACGTCCTCT)	0.829
TCACGTCCTTGGGTTCTAACCTGTTGCAG (site TCGCGTCCTCT)	0.183
TCAGCATCTTGGGTTCTAACCTGTTGCCT (site TCAGAATCTAG)	0.0342
TCAGCATCTTGGGTTCTAACCTGTTGCCT (site TCAGCATCTAG)	0.457
TCAGCATCTTGGGTTCTAACCTGTTGCCT (site TCAGGATCTAG)	0.0504
TCAGCATCTTGGGTTCTAACCTGTTGCCT (site TCAGTATCTAG)	0.0947
TCAGGATCTTGGGTTCTAACCTGTTGCCT (site TCAGAATCTAG)	0.201
TCAGGATCTTGGGTTCTAACCTGTTGCCT (site TCAGCATCTAG)	0.0751
TCAGGATCTTGGGTTCTAACCTGTTGCCT (site TCAGGATCTAG)	0.679
TCAGGATCTTGGGTTCTAACCTGTTGCCT (site TCAGTATCTAG)	0.291
TCATATACTTGGGTTCTAACCTGTTGCCT (site ACATTTACTAG)	0.238
TCATATACTTGGGTTCTAACCTGTTGCCT (site TCATATACTAG)	0.553
TCATATCCTTGGGTTCTAACCTGTTGCCT (site CTCCGAACTCT)	0.00468
TCATATCCTTGGGTTCTAACCTGTTGCCT (site TCATATCCTAG)	0.167
TCATCCGCTTGGGTTCTAACCTGTTGCCT (site CCATCCACTAG)	0.12
TCATCCGCTTGGGTTCTAACCTGTTGCCT (site TCATCCGCTAG)	1.05
TCCAAACCTTGGGTTCTAACCTGTTGCAG (site TCCAAACCTCT)	0.898
TCCAAACCTTGGGTTCTAACCTGTTGCAG (site TCCAACCCTCT)	0.0235
TCCAAACCTTGGGTTCTAACCTGTTGCAG (site TCCAAGCCTCT)	0.151
TCCAAACCTTGGGTTCTAACCTGTTGCAG (site TCCAATCCTCT)	0.0156
